Biological target: T1, RORγ (Homo sapiens, UniProt P51449)
T1 construct: expressed in transfected cells; host or cells: 293FT cells (Invitrogen), expression vector pFN26A (Promega)
T1 sequence (P51449 269-508 limits assumed): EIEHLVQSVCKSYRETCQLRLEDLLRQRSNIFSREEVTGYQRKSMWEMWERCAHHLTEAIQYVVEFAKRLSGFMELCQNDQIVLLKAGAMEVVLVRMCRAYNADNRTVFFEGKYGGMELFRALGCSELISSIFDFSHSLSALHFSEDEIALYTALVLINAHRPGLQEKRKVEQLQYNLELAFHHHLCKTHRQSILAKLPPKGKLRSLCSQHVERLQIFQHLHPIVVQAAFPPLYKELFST
Assay: RORγ GAL4 reporter gene assay (luciferase readout, 293FT cells)
Assay type: cell-based
Conditions: inhibition of RORγ (GAL4-RORγ-LBD) in transfected 293FT cells, luciferase signal, overnight incubation; read-out: mean pIC50 (converted)
Experimental: RORγ GAL4 Reporter Gene Assay
Example inhibitors 1-47 were tested for their ability to inhibit RORγ activity in a RORγ GAL4 reporter gene assay. The assay procedure and results are described below.
RORγ GAL4 Reporter Gene Assay Description
A GAL4 one-hybrid reporter system employing luciferase readout was established to determine inhibition of RORγ in 293FT cells. The RORγ ligand-binding domain (LBD) was fused to the yeast GAL4 DNA binding domain (DBD) and placed under the control of the human cytomegalovirus (CMV) immediate early promoter, using expression vector pFN26A (Promega) and standard recombinant DNA cloning methods. To serve as a control in the assay, a similar vector was generated in which the GAL4-DBD was fused to Herpes simplex virus protein 16 (VP16), a constitutive transcriptional activator.
To monitor the inhibitory effect of compounds on RORγ, a transcriptional reporter construct was used. The pGL4.35 vector (Promega) contains nine copies of the GAL4 Upstream Activator Sequence (UAS). This sequence drives the transcription of the luciferase reporter gene luc2P in response to binding of a fusion protein containing the GAL4 DNA binding domain, as for example expressed by the GAL4-RORγ-LBD and GAL4-VP16 expression vectors described above. To allow a GAL4 fusion protein to drive the expression of the luciferase reporter, the pGL4.35 expression vector and the appropriate GAL4 fusion protein expression vector were bulk transfected in the 293FT cells using standard transfection techniques.
The day after transfection, cells were plated into 96 well plates, test compound was added and the plates were incubated overnight. Subsequently, the firefly luciferase activity was quantified using luciferase detection reagent and luminescence readout.
Detailed Assay Description
293FT cells (Invitrogen) were transfected with a GAL4 fusion protein expression vector (as described above) and the transcriptional reporter construct (pGL4.35, Promega). 60 μL of TransIT-293 transfection reagent (Mirus Bio) was added drop wise to 1500 μl Opti-MEM I Reduced Serum Medium (Invitrogen) and incubated at room temperature (RT) for 5 to 20 minutes. 1500 μL of this reagent mixture was added to 5 μg of GAL4 fusion protein expression vector and 5 μg of the transcriptional reporter construct, and incubated at RT for 20 minutes.
To harvest 293FT cells from a T75 flask, first the culture medium was taken off the cells. Subsequently, the cells were washed with Phosphate Buffered Saline (PBS) (Lonza), after which the PBS was removed. To dissociate the cells, 1 ml of TrypLE Express (Invitrogen) was added to the flask, followed by incubation at RT until the cells visually started to detach. Cells were collected in 5 mL of assay medium (DMEM culture medium (Lonza), 10% dialyzed FBS (Invitrogen) and Pen/Strep (Lonza)) to achieve a single cell suspension. 10×10^6 cells were spun down and re-suspended in 10 mL of assay medium. Subsequently, the cell suspension was added to the transfection mix tube, and then transferred as a whole to a T75 flask (Greiner), followed by overnight (16-24 hours) incubation at 37° C. and 5% CO2.
For compound screening, the cells were harvested (as described above) and counted. 13×10^6 cells were spun down, the supernatant was aspirated and the cells were re-suspended in 17.3 mL of assay medium obtaining a cell suspension of 0.75×10^6 cells/mL. 80 μL of cell suspension (60,000 cells) was plated per well into a white, flat bottom, tissue culture treated, 96 well screening plates (Greiner).
Test compounds were diluted, starting from a 10 mM dimethylsulf oxide (DMSO) stock solution, to serial dilutions in DMSO at 500× the final test concentration. Subsequently, these solutions were diluted to 5× the final test concentration in two 10-fold-dilution steps in assay medium. The final DMSO concentration of the 5× test compound solution was 1%. […]

| IC50 [nM] | SMILES |
| --- | --- |
| ≤ 100 | O=C(Cc1ccc(S(=O)(=O)CC2CC2)cc1)Nc1cc(Cl)c(-c2ccccc2OC(F)(F)F)c(Cl)c1 [Example 30, 2-(4-cyclopropylmethanesulfonylphenyl)-N-{3,5-dichloro-4-[2-(trifluoromethoxy)phenyl]phenyl}acetamide] |
| ≤ 100 | Cc1cc(NC(=O)Cc2ccc(S(=O)(=O)CC3CC3)cc2)ncc1-c1ccccc1OC(F)(F)F [Example 31, 2-(4-cyclopropylmethanesulfonylphenyl)-N-{4-methyl-5-[2-(trifluoromethoxy)phenyl]pyridin-2-yl}acetamide] |
| ≤ 1000 | O=C(Cc1ccc(S(=O)(=O)CC2CC2)cc1)Nc1cc(-c2cccnc2)cs1 [Example 25, 2-(4-cyclopropylmethanesulfonylphenyl)-N-[4-(pyridin-3-yl)thiophen-2-yl]acetamide] |
| ≤ 1000 | O=C(Cc1ccc(S(=O)(=O)NC2CC2)cc1)Nc1ccc(-c2ccc(F)c(F)c2)c(Oc2cccc(Cl)c2)c1 [Example 18, N-[3-(3-chlorophenoxy)-4-(3,4-difluorophenyl)phenyl]-2-[4-(cyclopropylsulfamoyl)phenyl]acetamide] |
| ≤ 100 | O=C(Cc1ccc(S(=O)(=O)CC2CC2)cc1)Nc1ccc(-c2ccccc2OC(F)(F)F)c(Cl)c1 [Example 28, N-{3-chloro-4-[2-(trifluoromethoxy)phenyl]phenyl}-2-(4-cyclopropylmethanesulfonylphenyl)acetamide] |
| ≤ 1000 | O=C(Cc1ccc(S(=O)(=O)CC2CC2)cc1)Nc1cc(-c2ccccc2)cs1 [Example 24, 2-(4-cyclopropylmethanesulfonylphenyl)-N-(4-phenylthiophen-2-yl)acetamide] |
| ≤ 1000 | O=C(Cc1ccc(S(=O)(=O)CC2CC2)cc1)Nc1nc(-c2ccccc2)c(Oc2ccccc2)s1 [Example 20, 2-(4-cyclopropylmethanesulfonylphenyl)-N-(5-phenoxy-4-phenyl-1,3-thiazol-2-yl)acetamide] |
| ≤ 1000 | COc1cccc(Oc2cc(NC(=O)Cc3ccc(S(=O)(=O)NC4CC4)cc3)ccc2-n2cnc(C)c2)c1 [Example 14, 2-[4-(cyclopropylsulfamoyl)phenyl]-N-[3-(3-methoxyphenoxy)-4-(4-methyl-1H-imidazol-1-yl)phenyl]acetamide] |
| ≤ 1000 | COc1cccc(Oc2cc(NC(=O)Cc3ccc(S(=O)(=O)NC4CC4)cc3)ccc2-c2cccc(F)c2)c1 [Example 16, 2-[4-(cyclopropylsulfamoyl)phenyl]-N-[4-(3-fluorophenyl)-3-(3-methoxyphenoxy)phenyl]acetamide] |
| ≤ 1000 | O=C(Cc1ccc(S(=O)(=O)CC2CC2)cc1)Nc1ccc(-c2ccccc2)c(Oc2ccccc2)c1 [Example 1, 2-(4-cyclopropylmethanesulfonylphenyl)-N-(3-phenoxy-4-phenylphenyl)acetamide] |
| ≤ 1000 | O=C(Cc1ccc(S(=O)(=O)CC2CC2)cc1)Nc1ccc(-n2cccn2)cc1 [Example 44, 2-(4-cyclopropylmethanesulfonylphenyl)-N-[4-(1H-pyrazol-1-yl)phenyl]acetamide] |
| ≤ 100 | Cc1cc(NC(=O)Cc2ccc(S(=O)(=O)NC3CC3)cc2)ccc1-c1ccccc1OC(F)(F)F [Example 36, 2-[4-(cyclopropylsulfamoyl)phenyl]-N-{3-methyl-4-[2-(trifluoromethoxy)phenyl]phenyl}acetamide] |
| ≤ 100 | O=C(Cc1ccc(S(=O)(=O)NC2CC2)cc1)Nc1nc(-c2ccccc2)c(C(=O)c2ccccc2)s1 [Example 26, N-(5-benzoyl-4-phenyl-1,3-thiazol-2-yl)-2-[4-(cyclopropylsulfamoyl)phenyl]acetamide] |
| ≤ 100 | O=C(Cc1ccc(S(=O)(=O)CC2CC2)cc1)Nc1ccc(-c2cccc(F)c2)c(Oc2cc(F)cc(F)c2)c1 [Example 13, 2-(4-cyclopropylmethanesulfonylphenyl)-N-[3-(3,5-difluorophenoxy)-4-(3-fluorophenyl)phenyl]acetamide] |
| ≤ 100 | N#Cc1ccc(-c2ccc(NC(=O)Cc3ccc(S(=O)(=O)CC4CC4)cc3)cc2Oc2cccc(F)c2)cc1 [Example 9, N-[4-(4-cyanophenyl)-3-(3-fluorophenoxy)phenyl]-2-(4-cyclopropylmethanesulfonylphenyl)acetamide] |
| ≤ 100 | Cc1nc(NC(=O)Cc2ccc(S(=O)(=O)NC3CC3)cc2)ccc1-c1ccccc1OC(F)(F)F [Example 34, 2-[4-(cyclopropylsulfamoyl)phenyl]-N-{6-methyl-5-[2-(trifluoromethoxy)phenyl]pyridin-2-yl}acetamide] |
| ≤ 1000 | Cc1ccn(-c2ccc(NC(=O)Cc3ccc(S(=O)(=O)CC4CC4)cc3)cc2)n1 [Example 40, 2-(4-cyclopropylmethanesulfonylphenyl)-N-[4-(3-methyl-1H-pyrazol-1-yl)phenyl]acetamide] |
| ≤ 100 | O=C(Cc1ccc(S(=O)(=O)CC2CC2)cc1)Nc1nc(-c2cccc(Cl)c2)c(C(=O)c2ccc(Cl)cc2)s1 [Example 23, N-[5-(4-chlorobenzoyl)-4-(3-chlorophenyl)-1,3-thiazol-2-yl]-2-(4-cyclopropylmethanesulfonylphenyl)acetamide] |
| ≤ 100 | COc1cccc(Oc2cc(NC(=O)Cc3ccc(S(=O)(=O)CC4CC4)cc3)ccc2-c2cccc(F)c2)c1 [Example 2, 2-(4-cyclopropylmethanesulfonylphenyl)-N-[4-(3-fluorophenyl)-3-(3-methoxyphenoxy)phenyl]acetamide] |
| ≤ 100 | N#Cc1cccc(Oc2cc(NC(=O)Cc3ccc(S(=O)(=O)CC4CC4)cc3)ccc2-c2ccc(F)c(F)c2)c1 [Example 6, N-[3-(3-cyanophenoxy)-4-(3,4-difluorophenyl)phenyl]-2-(4-cyclopropylmethanesulfonylphenyl)acetamide] |
| ≤ 100 | COc1cccc(Oc2cc(NC(=O)Cc3ccc(S(=O)(=O)CC4CC4)cc3)ccc2-n2nccc2C)c1 [Example 7, 2-(4-cyclopropylmethanesulfonylphenyl)-N-[3-(3-methoxyphenoxy)-4-(5-methyl-1H-pyrazol-1-yl)phenyl]acetamide] |
| ≤ 100 | O=C(Cc1ccc(S(=O)(=O)CC2CC2)cc1)Nc1ccc(-c2cc(F)cc(F)c2)c(Oc2cccc(Cl)c2)c1 [Example 8, N-[3-(3-chlorophenoxy)-4-(3,5-difluorophenyl)phenyl]-2-(4-cyclopropylmethanesulfonylphenyl)acetamide] |
| ≤ 100 | N#Cc1cccc(-c2ccc(NC(=O)Cc3ccc(S(=O)(=O)CC4CC4)cc3)cc2Oc2cccc(Cl)c2)c1 [Example 10, N-[3-(3-chlorophenoxy)-4-(3-cyanophenyl)phenyl]-2-(4-cyclopropylmethanesulfonylphenyl)acetamide] |
| ≤ 100 | O=C(Cc1ccc(S(=O)(=O)CC2CC2)cc1)Nc1ccc(-c2cccc(F)c2)c(Oc2cccc(Cl)c2)c1 [Example 4, N-[3-(3-chlorophenoxy)-4-(3-fluorophenyl)phenyl]-2-(4-cyclopropylmethanesulfonylphenyl)acetamide] |
| ≤ 100 | O=C(Cc1ccc(S(=O)(=O)CC2CC2)cc1)Nc1cc(-c2ccccc2)c(C(=O)c2ccccc2)s1 [Example 27, N-(5-benzoyl-4-phenylthiophen-2-yl)-2-(4-cyclopropylmethanesulfonylphenyl)acetamide] |

Source: patent publication US10259782B2, “ROR gamma (RORγ) modulators” (LEAD PHARMA HOLDING B.V., priority 2015, dated 2019)
